Consider 1 compound from PMC9102431, “Natural Compound Shikonin Is a Novel PAK1 Inhibitor and Enhances Efficacy of Chemotherapy against Pancreatic Cancer Cells” (Molecules, 2022).

For the test, the target named is PAK1 (Homo sapiens, UniProt Q13153). Briefly: ADP-Glo kinase assay with human recombinant PAK1 (also labchip-based screen). The test is classed as biochemical. On the technique in general: ADP-Glo first removes unused ATP, then detects ADP through luciferase.
PAK1, sequence (Q13153 2-545): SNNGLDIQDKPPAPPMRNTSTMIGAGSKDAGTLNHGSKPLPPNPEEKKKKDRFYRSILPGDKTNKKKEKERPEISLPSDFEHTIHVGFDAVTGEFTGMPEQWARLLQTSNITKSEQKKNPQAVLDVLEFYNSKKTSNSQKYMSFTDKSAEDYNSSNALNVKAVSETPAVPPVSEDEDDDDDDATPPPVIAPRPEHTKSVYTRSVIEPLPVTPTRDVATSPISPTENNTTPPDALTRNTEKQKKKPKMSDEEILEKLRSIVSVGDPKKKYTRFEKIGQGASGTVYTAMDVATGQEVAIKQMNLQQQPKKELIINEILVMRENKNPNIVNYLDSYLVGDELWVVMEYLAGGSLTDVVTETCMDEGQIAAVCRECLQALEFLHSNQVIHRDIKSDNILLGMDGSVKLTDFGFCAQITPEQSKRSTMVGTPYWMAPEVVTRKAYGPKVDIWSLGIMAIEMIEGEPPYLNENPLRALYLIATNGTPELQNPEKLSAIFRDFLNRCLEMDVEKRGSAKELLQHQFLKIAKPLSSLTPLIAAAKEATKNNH

Usually IC50 stands for the concentration that gives 50% inhibition. `CC(C)=CC[C@@H](O)C1=CC(=O)c2c(O)ccc(O)c2C1=O` [shikonin]: the IC50 was determined as 7.252 ± 0.054 µM.
